# Results: patent US20060079497A1, “Lavendamycin analogues and methods of synthesizing and using lavendamycin analogues” (Ball State University, priority 2004, published 2006)
# Several values for one entry are separate records, joined by “and”; a condition that tells them apart may be missing. Equal values may be shown once. Read-outs that look alike come from different tables or passages of the source.
# Experiments:
# [1] = biological target: T1, HIV-RT (Human immunodeficiency virus type 1 group M subtype B, UniProt P04585); assay: Checkerboard combination of lavendamycin analogs with AZT-triphosphate in HIV-RT enzyme assay (Chou and Talalay); type: biochemical
# T1 construct: 1 unit/mL of HIV-RT (Worthington Biochemical Corp., Freehold, N.J.); purchased Worthington Biochemical Corp., Freehold, N.J
# Description: The results were analyzed by the method of Chou and Talalay based on the median-effect principle and represented by combination indices (CI) determined for each of the two drug combinations (e.g., see: Chou, T. C.; Talalay, P. “Quantitative Analysis of Dose-Effect Relationships: The Combined Effects of Multiple Drugs or Enzyme Inhibitors,” Adv. Enzyme Regul., 1984, 22, 27-65; and Chou, J.; Chou, T. C. “Dose-Effect Analysis with Microcomputers: Quantitation of ED50, LD50, Synergism, Antagonism, Low-Dose Risk, Receptor-Ligand Binding and Enzyme Kinetics,” In: A computer Software for IBM-PC and Manual, Cambridge, UK, Elsevier-Biosoft, 1987). This method involves the plotting of dose-effect curves for each agent and for each of the different combinations of the agents. The slope of the median-effect plot, which signifies the shape of the dose-effect curve, and the x intercept of the plot, which signifies the potency of each compound alone and each combination, were then used for a computerized calculation of a combination index.
# (§1) The assay procedure described below is adapted from Okada et al. (Okada, H.; Mukai, H.; Inouye, Y; Nakamura, S. “Biological Properties of Streptonigrin Derivatives II. Inhibition of Reverse Transcriptase Activity,” J. Antibiot., 1986, 39, 306-308). The lavendamycin analogs were initially dissolved in DMSO at a concentration of 1 mg/mL. Occasionally, mild sonication and heat were used to dissolve the less soluble compounds. The dissolved analogs were then serially diluted in distilled water to achieve concentrations in the final reaction mixture ranging from 0.5-15 μM. In addition to the lavendamycin analogs, the final reaction mixture contained 100 mM Tris-HCl (pH 8.0), 5 mM MgCl2, 5 mM dithiothreitol, 60 mM NaCl, 0.2 mM [^3H] thymidine triphosphate(5 μCi well), 4 μg/mL poly (rA)-oligo(dT)12-18 (Amersham Pharmacia Biotech, Piscataway, N.J.) and 1 unit/mL of HIV-RT (Worthington Biochemical Corp., Freehold, N.J.) in a total volume of 300 μL. For each assay, the reaction mixture containing 8× buffer, double distilled H2O, ^3HTTP, template-primer and HIV-RT was pre-mixed in a 15-mL sterile tube in quantities required for the particular experiment. After adding the enzyme, the reaction mixture was mixed and kept on ice. The inhibitors, either AZT(Moravek Biochemicals, Brea, Calif.), analogs or both were added to appropriate wells in a 24 well microtiter plate and ddH2O was added to each well to bring the volume of all test wells to 100 μL. Two hundred μL of the chilled reaction mixture was then added to each of the test wells, mixed, and incubated for 1 hr at 37° C. Several control wells with no inhibitors were included on each test plate. After stopping the reactions with 25 μL 0.1 M EDTA, triplicate samples of 15 μL from each test well were spotted on DE81 ion exchange filter paper squares (Whatman Paper, Maidstone, England). After drying, each filter was washed for 10 minutes three times with 5% TCA-NHPO4, three times with 0.6M NaCl-[…] Na Citrate, one time with ddH2O and one time with 95% ethanol. After drying the individual filter papers were added to 5 mL Scintiverse E (Fisher Scientific, Chicago, Ill.) scintillation fluid and the amount of 3H-TTP uptake measured as counts per minute on a Beckman liquid scintillation counter. […] The results were then analyzed using Calcusyn, a windows software program for dose effect analysis designed by T. -C. Chou and M. P. Hayball and published by Biosoft® (UK).
# [2] = biological target: T1, HIV-RT; assay: Two drug combination of AZT-TP and analogues at constant molar ratios in HIV-RT assay (CI and dose reduction index); type: biochemical
# Excerpt: In order to derive the dose reduction index of several of these compounds the method of Chou and Talalay was again employed using the classic isobologram technique. This method also involves the plotting of dose-effect curves for each agent as well as for multiply diluted fixed-ratio combinations of the agents.
# The dose reduction index is a measure of how much the dose of each drug in a synergistic combination may be reduced at a given effect level compared with the doses of each drug alone.
# as §1
# [3] = system: tumor; assay: Antitumor activity (applicant's earlier studies)
# [4] = analogue 0.25 μM + AZT 0.007 μM, Trial 1
# [5] = analogue 0.25 μM + AZT 0.007 μM, Trial 2
# [6] = analogue 0.25 μM + AZT 0.01 μM, Trial 1
# [7] = analogue 0.25 μM + AZT 0.01 μM, Trial 2
# [8] = analogue 0.25 μM + AZT 0.02 μM, Trial 1
# [9] = analogue 0.25 μM + AZT 0.02 μM, Trial 2
# [10] = analogue 0.5 μM + AZT 0.007 μM, Trial 1
# [11] = analogue 0.5 μM + AZT 0.007 μM, Trial 2
# [12] = analogue 0.5 μM + AZT 0.01 μM, Trial 1
# [13] = analogue 0.5 μM + AZT 0.01 μM, Trial 2
# [14] = analogue 0.5 μM + AZT 0.02 μM, Trial 1
# [15] = analogue 0.5 μM + AZT 0.02 μM, Trial 2
# [16] = analogue 0.75 μM + AZT 0.01 μM, Trial 1
# [17] = analogue 0.75 μM + AZT 0.01 μM, Trial 2
# [18] = analogue 0.75 μM + AZT 0.02 μM, Trial 1
# [19] = analogue 0.75 μM + AZT 0.02 μM, Trial 2
# [20] = analogue 1.5 μM + AZT 0.007 μM, Trial 1
# [21] = analogue 1.5 μM + AZT 0.007 μM, Trial 2
# [22] = analogue 1.5 μM + AZT 0.01 μM, Trial 1
# [23] = analogue 1.5 μM + AZT 0.01 μM, Trial 2
# [24] = analogue 1.5 μM + AZT 0.02 μM, Trial 1
# [25] = analogue 1.5 μM + AZT 0.02 μM, Trial 2
SMILES,"Combination index [1, 4]","Combination index [1, 5]","Combination index [1, 6]","Combination index [1, 7]","Combination index [1, 8]","Combination index [1, 9]","Combination index [1, 10]","Combination index [1, 11]","Combination index [1, 12]","Combination index [1, 13]","Combination index [1, 14]","Combination index [1, 15]","Combination index [1, 16]","Combination index [1, 17]","Combination index [1, 18]","Combination index [1, 19]","Combination index [1, 20]","Combination index [1, 21]","Combination index [1, 22]","Combination index [1, 23]",also measured
"CCCCCCCCOC(=O)c1cc2c([nH]c3ccccc32)c(-c2ccc3c(n2)C(=O)C(N)=CC3=O)n1 [Compound 20, Demethyllavendamycin n-Octyl Ester]",0.65,0.61,0.77,0.77,0.97,1.00,0.62,0.61,0.60,0.61,0.86,0.88,0.64,0.63,0.61,0.64,0.83,0.83,0.70,0.69,"Combination index [1]: 0.68 and 0.66; Combination index [1, 24]: 0.64; Combination index [1, 25]: 0.63; dose reduction in combination with AZT-TP [2]: considerable dose reduction; CI at HIV-RT Inhibition of 50% ([2]; molar ratio AZT:analogue 1:214): 0.46 ± 0.11; CI at HIV-RT Inhibition of 70% ([2]; molar ratio AZT:analogue 1:214): 0.56 ± 0.22; Dose Reduction Index (50%) AZT-TP ([2]; molar ratio AZT:analogue 1:214): 4.08; Dose Reduction Index (50%) analogue ([2]; molar ratio AZT:analogue 1:214): 4.63; CI at HIV-RT Inhibition of 50% ([2]; molar ratio AZT:analogue 1:600): 0.49 ± 0.17; CI at HIV-RT Inhibition of 70% ([2]; molar ratio AZT:analogue 1:600): 0.40 ± .09; Dose Reduction Index (50%) AZT-TP ([2]; molar ratio AZT:analogue 1:600): 2.4; Dose Reduction Index (50%) analogue ([2]; molar ratio AZT:analogue 1:600): 13.7"
"COC(=O)c1nc(-c2ccc3c(n2)C(=O)C(NC(C)=O)=CC3=O)c2[nH]c3ccccc3c2c1C [Compound 11, 7-acetyllavendamycin methyl ester]",0.57,0.48,0.94,0.89,0.90,0.68,0.81,0.71,0.84,0.76,0.72,0.84,1.20,1.08,0.94,0.84,1.40,1.23,1.40,1.12,"antitumor activity [3]: highly active antitumor agents; Combination index [1]: 1.00 and 1.30; Combination index [1, 24]: 1.17; Combination index [1, 25]: 1.08"
"CCCCOC(=O)c1cc2c([nH]c3ccccc32)c(-c2ccc3c(n2)C(=O)C(NC(=O)CCC)=CC3=O)n1 [Compound 12, 7-N-n-Butyryidemethyllavendamycin n-Butyl Ester]",0.82,0.83,0.58,0.58,0.59,0.50,0.88,0.71,0.76,0.76,0.85,0.93,0.86,0.99,1.00,0.92,1.30,1.20,0.81,0.91,"Combination index [1]: 1.30 and 1.60; Combination index [1, 24]: 1.10; Combination index [1, 25]: 0.96; dose reduction in combination with AZT-TP [2]: considerable dose reduction; CI at HIV-RT Inhibition of 50% ([2]; molar ratio AZT:analogue 1:600): 0.45 ± 0.06; CI at HIV-RT Inhibition of 70% ([2]; molar ratio AZT:analogue 1:600): 0.32 ± 0.08; Dose Reduction Index (50%) AZT-TP ([2]; molar ratio AZT:analogue 1:600): 3.0; Dose Reduction Index (50%) analogue ([2]; molar ratio AZT:analogue 1:600): 8.2; CI at HIV-RT Inhibition of 50% ([2]; molar ratio AZT:analogue 1:857): 0.39 ± 0.06; CI at HIV-RT Inhibition of 70% ([2]; molar ratio AZT:analogue 1:857): 0.32 ± 0.09; Dose Reduction Index (50%) AZT-TP ([2]; molar ratio AZT:analogue 1:857): 3.9; Dose Reduction Index (50%) analogue ([2]; molar ratio AZT:analogue 1:857): 7.3"
"CC(=O)NC1=CC(=O)c2ccc(-c3nc(C(N)=O)cc4c3[nH]c3ccccc34)nc2C1=O [Compound 16, 7-N-Acetyldemethyllavendamycin Amide]",0.82,0.80,0.85,1.18,0.67,0.75,0.54,0.65,0.87,0.70,0.58,0.60,1.0,1.20,1.10,1.10,0.66,0.67,1.0,1.0,"antitumor activity [3]: highly active antitumor agents; Combination index ([1]; analogue 0.75 μM + AZT 0.007 μM, Trial 1): 1.50; Combination index ([1]; analogue 0.75 μM + AZT 0.007 μM, Trial 2): 1.61; Combination index [1, 24]: 1.00; Combination index [1, 25]: 1.00"
